From patent publication US20250205248A1, “REPURPOSING VARENICLINE AS AN ANTI-INFLAMMATORY AGENT WITH ITS SUPPRESSOR EFFECTS ON INFLAMMATORY CYTOKINES” (IZMIR EKONOMI UNIVERSITESI, priority 2022, published 2025)
Structures can show the parent of a compound that is named as a salt.

Key:
[1] = tested on: RAW 264.7 murine macrophage cells; experiment: LPS-induced inflammatory cytokine levels (IL-1β, IL-6, TNFα) by ELISA in RAW 264.7 cells; assay type: cell-based; details: for IL-1β level in presence of nAChR antagonist / IL-6 level in presence of nAChR antagonist / TNFα level in presence of nAChR antagonist: antagonist 30 minutes before varenicline and LPS, compared to varenicline-treated groups
Protocol: RAW 264.7 murine macrophage cells maintained in culture media supplemented with heat inactivated FBS (10%) and penicillin (100 U/ml) and streptomycin (100 μg/ml) at 37° C. in a 5% CO2 incubator were used during the experimental studies. The cells (500,000/well) were seeded in 48-well culture plates after detachment with scraping incubated for 24 h in serum-free media for reattachment to the surface. In the first group, the cells were treated with LPS at increasing concentrations to determine the effective concentration at which cytokines are released. In the second group, the cells were pretreated with varenicline tartarate with increasing concentrations in presence of LPS to determine effective varenicline concentration on LPS-induced cytokine levels. Additionally, the anti-inflammatory effect of varenicline was compared with that of dexamethasone. In the third group, a non-selective nicotinic ACh receptor antagonist mecamylamine hydrochloride and a selective α7nAChR antagonist methyllycaconitine citrate were applied prior to varenicline and LPS administration in order to investigate the involvement of nicotinic receptors.
The inflammatory response of macrophage cells was evaluated by the change in inflammatory cytokine levels (IL-1β, IL-6 and TNFα) after 24 hours. In other groups where the effect of varenicline will be investigated, the LPS concentration, which triggers the increase in all cytokines determined in the first group and employed for the induction of inflammatory response. Increasing concentrations of varenicline were administered 30 minutes before LPS administration, LPS-induced cytokine levels were analyzed at the end of 24-hour protocol and the effective concentration on cytokine levels were determined in the second group. The effective concentration of varenicline was used in the third group in which the receptor-mediated effects investigated.
(§1) Antagonist drugs was applied 30 minutes before varenicline and LPS applications. Thus, the role of α7nAChRs and activation of the cholinergic anti-inflammatory pathway was determined at the end of 24-hour protocol by examining LPS-induced inflammatory cytokine levels (IL-1β, IL-6 and TNFα) in addition to 40 different cytokines and chemokines.
(§2) The results are as follows for the application of the invention. (1) Cytokine levels (IL-1β, IL-6 and TNFα) examined by the ELISA method were increased at the end of 24-hour protocol after induced by LPS in RAW 264.7 cells.

[2] = tested on: LPS-activated RAW264.7 macrophage cell cultures; details: cited from earlier work
sepsis = details: cited from earlier work
RAW 264.7 macrophages = experiment: LPS-induced cytokine and chemokine panel in RAW 264.7 macrophages; assay type: cell-based, mouse
Protocol: FIGS. 6A-6C. Effects of varenicline on LPS-induced 14 mouse cytokines levels in RAW 264.7 macrophages.
as §1, §2

[3] = tested on: RAW 264.7 murine macrophage cells; experiment: LPS-induced cell proliferation; assay type: cell-based
Protocol: (§3) Here, in the application subject invention, the anti-inflammatory potential of varenicline, which is used in the treatment of smoking cessation, was determined for the first time by suppressing increased cytokine levels in inflammatory conditions. According to the current study, the anti-inflammatory activity of varenicline is not limited to its suppression of cytokine levels, but is also associated with suppressed proliferation and macrophage migration rates (FIGS. 4A-6C).
FIGS. 4A-4B. Effects of varenicline on LPS-induced cell proliferation in the presence or absence of nAChR antagonists.
(§4) This invention points out repurposing of varenicline and provides mechanical insights about the effects of varenicline on α7nAChR-mediated activation of cholinergic anti-inflammatory pathway (CAP), cell proliferation, and migration in the in vitro inflammation model induced by LPS.

[4] = tested on: RAW 264.7 murine macrophage cells; experiment: LPS-induced macrophage migration; assay type: cell-based
Protocol: as §3
FIGS. 5A-5B. Effects of varenicline on LPS-induced cell migration in the presence or absence of nAChR antagonists
as §4

α4β2nAChRs = α4β2nAChRs (Homo sapiens, UniProt P17787+P43681); details: central nervous system; cited from earlier work
α7nAChRs = α7nAChRs (Homo sapiens, UniProt P36544); details: cited from earlier work
[5] = tested on: transient middle cerebral artery ischemia model; details: mice, treatment for one week, cited from earlier work
[6] = tested on: emphysema induced by porcine pancreatic elastase; details: mice, PPE emphysema, cited from earlier work
smokers = details: 3 months of treatment; cited from earlier work
[7] = tested on: RAW 264.7 macrophage cells stimulated with LPS; details: via α7nAChR activation; LPS-stimulated RAW 264.7; cited from earlier work
[8] = varenicline 30 minutes before LPS, 24-hour protocol, compared to the LPS group

α7nAChRs, sequence (P36544 23-502): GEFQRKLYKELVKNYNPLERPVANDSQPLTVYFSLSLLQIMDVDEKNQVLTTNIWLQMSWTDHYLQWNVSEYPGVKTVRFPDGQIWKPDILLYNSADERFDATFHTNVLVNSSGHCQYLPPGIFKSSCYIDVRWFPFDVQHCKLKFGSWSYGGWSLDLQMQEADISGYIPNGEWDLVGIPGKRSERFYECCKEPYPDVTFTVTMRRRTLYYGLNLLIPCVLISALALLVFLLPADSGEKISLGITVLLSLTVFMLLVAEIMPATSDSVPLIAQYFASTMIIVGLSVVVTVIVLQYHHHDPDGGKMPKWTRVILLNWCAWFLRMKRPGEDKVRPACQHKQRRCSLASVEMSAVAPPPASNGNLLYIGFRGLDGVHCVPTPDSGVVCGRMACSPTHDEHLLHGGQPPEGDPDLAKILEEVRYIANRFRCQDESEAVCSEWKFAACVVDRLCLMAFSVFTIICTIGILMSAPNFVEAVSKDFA
α4β2nAChRs, sequence (P43681 29-627 limits assumed): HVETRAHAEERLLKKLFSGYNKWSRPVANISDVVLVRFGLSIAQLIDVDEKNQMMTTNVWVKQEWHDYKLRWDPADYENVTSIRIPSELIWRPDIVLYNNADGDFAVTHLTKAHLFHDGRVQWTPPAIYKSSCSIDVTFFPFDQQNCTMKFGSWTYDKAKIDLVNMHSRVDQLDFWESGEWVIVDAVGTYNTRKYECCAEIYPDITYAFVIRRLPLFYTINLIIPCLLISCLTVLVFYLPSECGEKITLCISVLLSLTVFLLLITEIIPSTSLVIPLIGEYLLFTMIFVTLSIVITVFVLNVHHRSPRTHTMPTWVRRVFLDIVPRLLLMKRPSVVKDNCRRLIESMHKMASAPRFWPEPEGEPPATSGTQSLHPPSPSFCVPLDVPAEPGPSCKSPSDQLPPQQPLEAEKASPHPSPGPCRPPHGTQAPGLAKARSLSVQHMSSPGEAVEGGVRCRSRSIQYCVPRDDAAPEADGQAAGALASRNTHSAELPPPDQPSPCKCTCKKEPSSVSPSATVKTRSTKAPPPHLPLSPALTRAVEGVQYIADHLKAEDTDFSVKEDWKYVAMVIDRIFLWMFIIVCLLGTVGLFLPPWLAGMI
α4β2nAChRs, sequence (P17787 26-502): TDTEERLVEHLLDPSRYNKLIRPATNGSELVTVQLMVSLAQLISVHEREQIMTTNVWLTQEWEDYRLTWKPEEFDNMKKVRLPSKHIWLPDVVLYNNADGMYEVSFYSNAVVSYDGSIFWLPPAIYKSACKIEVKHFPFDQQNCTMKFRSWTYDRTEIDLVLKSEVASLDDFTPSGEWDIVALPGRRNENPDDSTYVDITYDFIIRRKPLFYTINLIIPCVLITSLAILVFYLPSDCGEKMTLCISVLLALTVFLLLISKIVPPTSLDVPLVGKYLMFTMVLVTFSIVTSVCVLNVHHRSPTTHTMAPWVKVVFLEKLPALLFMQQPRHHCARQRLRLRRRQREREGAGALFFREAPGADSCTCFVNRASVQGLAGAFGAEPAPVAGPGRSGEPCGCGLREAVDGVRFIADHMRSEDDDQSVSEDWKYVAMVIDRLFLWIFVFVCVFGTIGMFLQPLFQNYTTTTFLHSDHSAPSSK

Molecule: methyllycaconitine citrate [MLA]
- IL-1β level in presence of nAChR antagonist [1]: significantly increased
- IL-6 level in presence of nAChR antagonist [1]: significantly increased
- TNFα level in presence of nAChR antagonist [1]: significantly increased

Molecule: COc1ccc(/C=C2\CCCN=C2c2cccnc2)c(OC)c1 [GTS-21]
- HMGB-1 level [2]: significantly reduces
- TNFα level [2]: significantly reduces
- cytokine levels that increased due to inflammation (sepsis): decreased
- life span of experimental animals (sepsis): extended

Molecule: c1cnc2cc3c(cc2n1)[C@@H]1CNC[C@H]3C1 [Varenicline, varenicline]
- IL-1β level [1, 8]: significantly decreased
- IL-6 level [1, 8]: significantly decreased
- TNFα level [1, 8]: significantly decreased
- LPS-induced 14 different cytokines and chemokines (G-CSF, GM-CSF, IL-1, IL-6, IL-27, IL-1ra, IP-10, MCP-1, MIP-1, RANTES, TNF α) (RAW 264.7 macrophages): significantly decreased
- proliferation rate [3]: suppressed
- macrophage migration rate [4]: suppressed
- effect on α4β2nAChRs (α4β2nAChRs): partial agonistic effect
- effect on α7nAChRs (α7nAChRs): potent and complete agonist
- use of damaged forelimbs [5]: increased
- inflammation in the corpus striatum ([5]; immunohistochemical analysis): decreased
- inflammation ([6]; immunohistochemical analysis): reduce
- number of T cells in tissue ([6]; with activation of α7nAChR): significantly reduced
- number of macrophages in tissue ([6]; with activation of α7nAChR): significantly reduced
- number of neutrophils in tissue ([6]; with activation of α7nAChR): significantly reduced
- atherosclerosis (smokers): reduced
- endothelial damage (smokers): reduced
- oxidative stress (smokers): reduced

Molecule: CN1CCCC1c1cccnc1 (stereo not shown) [nicotine]
- TNFα levels [7]: decrease

Molecule: CNC1(C)C2CCC(C2)C1(C)C (stereo not shown) [MEC, mecamylamine hydrochloride]
- IL-1β level in presence of nAChR antagonist [1]: significantly increased
- IL-6 level in presence of nAChR antagonist [1]: significantly increased
- TNFα level in presence of nAChR antagonist [1]: significantly increased
